Assay results taken from patent US20240409523A1, “SUGAR AMIDES AND MIXTURES THEREOF” (Clariant International Ltd, priority 2021, published 2024).

Legend:
Type in all cases: cell-based
Klebsiella pneumoniae = experiment: MIC, agar dilution (bacteria); conditions: Klebsiella pneumoniae (B); Caso-Agar, pH 7 (+/−0.2)
Protocol: (§1) For testing the inhibition of bacteria, the sample was diluted in demineralized water and added in different concentrations to liquid Caso-Agar at 50° C. and is buffered to pH 7 (+/−0.2). […] Each of the solutions is poured into a petri-dish and inoculated with the same amount of bacteria, yeast or mold respectively. The minimum inhibitory concentration (MIC) is the lowest concentration of the sample that inhibits the growth of the respective microorganism where the next lowest dilution fails to inhibit the growth of said microorganism.

Staphylococcus aureus = experiment: MIC, agar dilution (bacteria); conditions: Staphylococcus aureus (B); Caso-Agar, pH 7 (+/−0.2)
Protocol: as §1

Burkholderia cepacia = experiment: MIC, agar dilution (bacteria); conditions: Burkholderia cepacia (B); Caso-Agar, pH 7 (+/−0.2)
Protocol: as §1

Pluralibacter gergoviae = experiment: MIC, agar dilution (bacteria); conditions: Pluralibacter gergoviae (B); Caso-Agar, pH 7 (+/−0.2)
Protocol: as §1

Pseudomonas aeruginosa = experiment: MIC, agar dilution (bacteria); conditions: Pseudomonas aeruginosa (B); Caso-Agar, pH 7 (+/−0.2)
Protocol: as §1

Enterobacter aerogenes = experiment: MIC, agar dilution (bacteria); conditions: Enterobacter aerogenes (B); Caso-Agar, pH 7 (+/−0.2)
Protocol: as §1

Serratia marcescens = experiment: MIC, agar dilution (bacteria); conditions: Serratia marcescens (B); Caso-Agar, pH 7 (+/−0.2)
Protocol: as §1

Escherichia coli = experiment: MIC, agar dilution (bacteria); conditions: Escherichia coli (B); Caso-Agar, pH 7 (+/−0.2)
Protocol: as §1

Penicillium minioluteum = experiment: MIC, agar dilution (yeast and mold); conditions: Penicillium minioluteum (M); Sabouraud-4% Dextrose-Agar, pH 5.6 (+/−0.2)
Protocol: as §1

Saccharomyces cerevisiae = experiment: MIC, agar dilution (yeast and mold); conditions: Saccharomyces cerevisiae (Y); Sabouraud-4% Dextrose-Agar, pH 5.6 (+/−0.2)
Protocol: as §1

Candida albicans = experiment: MIC, agar dilution (yeast and mold); conditions: Candida albicans (Y); Sabouraud-4% Dextrose-Agar, pH 5.6 (+/−0.2)
Protocol: as §1

Candida parapsilosis = experiment: MIC, agar dilution (yeast and mold); conditions: Candida parapsilosis (Y); Sabouraud-4% Dextrose-Agar, pH 5.6 (+/−0.2)
Protocol: as §1

Aspergillus terreus = experiment: MIC, agar dilution (yeast and mold); conditions: Aspergillus terreus (M); Sabouraud-4% Dextrose-Agar, pH 5.6 (+/−0.2)
Protocol: as §1

Fusarium solani = experiment: MIC, agar dilution (yeast and mold); conditions: Fusarium solani (M); Sabouraud-4% Dextrose-Agar, pH 5.6 (+/−0.2)
Protocol: as §1

Penicillium funicolosum = experiment: MIC, agar dilution (yeast and mold); conditions: Penicillium funicolosum (M); Sabouraud-4% Dextrose-Agar, pH 5.6 (+/−0.2)
Protocol: as §1

Aspergillus brasiliensis = experiment: MIC, agar dilution (yeast and mold); conditions: Aspergillus brasiliensis (M); Sabouraud-4% Dextrose-Agar, pH 5.6 (+/−0.2)
Protocol: as §1

In the case of “Cyclic N-Octanoyl/Decanoyl-N-Methylxylosamide [N-Methyl Xylosamid]”, the “MIC of N-Methyl Xylosamid* (70% active) in water” value (“MIC … (70% active) in water” for short) (Klebsiella pneumoniae) is reported as 1000 ppm, the “MIC … (70% active) in water” value (Staphylococcus aureus) is reported as under 500 ppm and the “MIC … (70% active) in water” value (Burkholderia cepacia) is reported as 7500 ppm. The “MIC … (70% active) in water” value (Pluralibacter gergoviae) was 15000 ppm, the “MIC … (70% active) in water” value (Pseudomonas aeruginosa) was 10000 ppm and the “MIC … (70% active) in water” value (Enterobacter aerogenes) was 15000 ppm. For the same substance, the “MIC … (70% active) in water” value (Serratia marcescens) was 10000 ppm, the “MIC … (70% active) in water” value (Escherichia coli) was 15000 ppm and the “MIC … (70% active) in water” value (Penicillium minioluteum) was 1500 ppm. For the same substance, the “MIC … (70% active) in water” value (Saccharomyces cerevisiae) was 1000 ppm, the “MIC … (70% active) in water” value (Candida albicans) was 3000 ppm and the “MIC … (70% active) in water” value (Candida parapsilosis) was 7500 ppm. The “MIC … (70% active) in water” value (Aspergillus terreus) was 3000 ppm, the “MIC … (70% active) in water” value (Fusarium solani) was 1000 ppm and the “MIC … (70% active) in water” value (Penicillium funicolosum) was 1000 ppm. For the same substance, the “MIC … (70% active) in water” value (Aspergillus brasiliensis) was 2000 ppm.
